Assay results reported in paper PMC10045593, “Ubiquitin-Specific Proteases as Potential Therapeutic Targets in Bladder Cancer—In Vitro Evaluation of Degrasyn and PR-619 Activity Using Human and Canine Models” (Biomedicines, 2023).
“And” between values parts separate entries of the source, which are not always exact repeats. Equal values may be shown once.

How the values were obtained:
SV-HUC-1 cell line = assay: MTT cell proliferation assay; type: cell-based, human; conditions: for cells killed at the highest concentration: SV-HUC-1, MTT, highest concentration used (20 μM)
Description: (§1) Cell proliferation was determined using the 3-(4,5-dimethylthiazol-2-yl)-2,5-diphenyltetrazolium bromide (MTT) assay (Sigma-Aldrich, Steinheim, Germany). Cells were plated at a density of 1 × 10^5 cells per mL in 96-well plates (Thermo Fisher Scientific, Roskilde, Denmark) and allowed to attach overnight. Subsequently, Degrasyn and PR-619 were added in increasing concentrations (0.6, 1.25, 2.5, 5, 10, and 20 μM). After incubation for 24, 48, and 72 h with either the compounds or in the medium alone, 20 μL of MTT solution (5 mg/mL) was added to each well. After an additional 4 h, 80 μL of the lysis buffer (225 mL DMF, 67.5 g SDS, and 275 mL distilled water) was added to each well. After dissolving the content, the absorbance was measured at a […] of 570 nm using a spectrophotometric microplate reader Spark (Tecan). The values were obtained from 3 independent experiments (different plates, different days). Based on the results, the concentration that inhibited 50% of the cell proliferation (IC50) was calculated for all incubation intervals.

T24 cell line = assay: MTT cell proliferation assay; type: cell-based, human; conditions: for cells killed at the highest concentration: T24, MTT, highest concentration used (20 μM)
Description: as §1

K9TCC-PU-NK cell line [1] = assay: MTT cell proliferation assay; type: cell-based, canine; conditions: highest concentration used (20 μM)
Description: as §1

RDSVS-TCC1 cell line [2] = assay: MTT cell proliferation assay; type: cell-based, canine; conditions: highest concentration used (20 μM)
Description: as §1

K9TCC-PU-NK cell line [3] = assay: Annexin V-FITC/PI apoptosis flow cytometry; type: cell-based, canine; conditions: 24 h
Description: (§2) To assess the level of apoptosis induced by Degrasyn and PR-619, cells were seeded at a density of 1 × 10^5/mL in 96-well plates (TPP, Trasadingen, Switzerland) and incubated for 24 h with increasing concentrations of compounds. Cells were then collected, suspended in a binding buffer, and stained with Annexin V-FITC for 10 min at room temperature. Subsequently, PI was added, and flow cytometric analysis was immediately performed using a flow cytometers (FACS Calibur, Becton Dickinson, Biosciences, San Jose, CA, USA; CytoFlex, Beckman Coulter, CA, USA). CellQuest 3.lf. (Becton Dickinson, San Jose, CA, USA) and CytExpert 2.4 (Beckman Coulter, CA, USA) software were used for data analysis.

RDSVS-TCC1 cell line [4] = assay: Annexin V-FITC/PI apoptosis flow cytometry; type: cell-based, canine; conditions: RDSVS-TCC1, 24 h; for pro-apoptotic effect (number of apoptotic cells vs control): increasing concentrations up to approximately IC50
Description: as §2

K9TCC-PU-NK cell line [5] = assay: Caspase 3/7 activation flow cytometry assay; type: cell-based, canine; conditions: 24 h
Description: (§3) Subsequently, to assess caspases 3/7 activation, the cells were incubated with medium alone or with increasing concentrations of compounds (Degrasyn, PR-619) in conditions similar to the previous test. Following cell collection, the cells were twice PBS-washed and stained in accordance with the manufacturer’s instructions. For active caspase 3/7 detection, CellEventCaspase-3/7 Green Detection Reagent Solution was added to the samples. The cells were then suspended 1 more time in the wash buffer after being washed twice. For flow cytometric analysis, a flow cytometers (FACS Calibur, Becton Dickinson, Biosciences, San Jose, CA, USA; CytoFlex, Beckman Coulter, CA, USA) were used, and CellQuest 3.lf (Becton Dickinson, San Jose, CA, USA) and CytExpert 2.4 (Beckman Coulter, CA, USA) software were used for data analysis. The presented results were obtained from three independent experiments.

RDSVS-TCC1 cell line [6] = assay: Caspase 3/7 activation flow cytometry assay; type: cell-based, canine; conditions: RDSVS-TCC1, 24 h
Description: as §3

[7] = system: Bcl-xl in all cell lines (SV-HUC-1, T24, K9TCC-PU-NK, RDSVS-TCC1); assay: Western blot for Bcl-xl expression; type: cell-based, human and canine; conditions: 24 h
Description: Western blot was performed to assess the expression of USP5, USP9X, and USP14 in analyzed cell lines. After 24 h of incubation with increasing concentrations of Degrasyn and PR-619, the expression of proteins involved in apoptosis (Bcl-2 and Bcl-xl) and a marker of DNA damage (γH2A.X) was also evaluated. Briefly, cells were rinsed with cold phosphate-buffered saline (PBS), suspended in lysis buffer (50 mM Tris-HCl pH 7.5, 100 mM NaCl, 1% NP-40, protease inhibitors set), and incubated for 20 min on ice. Subsequently, after centrifuging at 10,000 rpm at 4 °C for 12 min, sodium dodecyl sulfate (SDS) sample buffer was added to […]. After boiling for 5 min at 95 °C, the samples were subjected to SDS-polyacrylamide gel electrophoresis on 8–15% gel. For USP5, USP9X, USP14, γH2A.X, Bcl-2, and Bcl-xl expression analysis, transfers onto nitrocellulose membranes were performed using a Semidry Transfer Cell or wet transfer method (Bio-Rad, Hercules, CA, USA). After transfer, the membranes were blocked with 1% casein in TBS (or 3% BSA for γH2Ax) at room temperature for 1 h. […]

[8] = 5 μM (highest concentration of Degrasyn)
[9] = 10 μM (highest concentration of PR-619)

| SMILES | cells killed at the highest concentration (SV-HUC-1 cell line) | cells killed at the highest concentration (T24 cell line) | cells killed at the highest concentration (K9TCC-PU-NK cell line [1]) | cells killed at the highest concentration (RDSVS-TCC1 cell line [2]) | pro-apoptotic effect (number of apoptotic cells vs control) (RDSVS-TCC1 cell line [4]) | percentage of cells with active caspase 3/7 (K9TCC-PU-NK cell line [5]; 2.5 μM) | percentage of cells with active caspase 3/7 (K9TCC-PU-NK cell line [5]; [8]) | percentage of cells with active caspase 3/7 (RDSVS-TCC1 cell line [6]; 2.5 μM) | percentage of cells with active caspase 3/7 (RDSVS-TCC1 cell line [6]; [8]) | further results |
| --- | --- | --- | --- | --- | --- | --- | --- | --- | --- | --- |
| CCC[C@H](NC(=O)/C(C#N)=C/c1cccc(Br)n1)c1ccccc1 [Degrasyn] | ~100% | ~100% | ~100% | ~100% | significant increase | 7.1% | 11.9 ± 1.8% and 11.9% | 11.7% | 22.5 ± 4.3% and 22.5% | IC50 (SV-HUC-1 cell line; SV-HUC-1, 24 h exposure, MTT, read-out: IC50 (concentration that inhibited 50% of the cell proliferation)): 2.33 µM; IC50 (T24 cell line; T24, 24 h exposure, MTT, read-out: IC50 (concentration that inhibited 50% of the cell proliferation)): 3.07 µM; percentage of early and late apoptotic cells (K9TCC-PU-NK cell line [3]; 2.5 μM): 11.8 ± 3.4%; percentage of early and late apoptotic cells (RDSVS-TCC1 cell line [4]; 2.5 μM): 42.4 ± 2.3%; percentage of cells with active caspase 3/7 (K9TCC-PU-NK cell line [5]; 1.25 μM): 5.4%; percentage of cells with active caspase 3/7 (RDSVS-TCC1 cell line [6]; 1.25 μM): 5.9%; Bcl-xl expression ([7]; all cell lines, 5 μM): slightly reduced |
| N#CSc1cc(SC#N)c(N)nc1N [PR-619] | ~100% | ~100% | ~100% | ~100% | did not show a significant pro-apoptotic effect | 6.4% | 9.9% | 6.1% | 12.9% | percentage of early and late apoptotic cells (K9TCC-PU-NK cell line [3]; 5 μM): 8.4 ± 0.8%; pro-apoptotic effect (number of apoptotic cells vs control) (K9TCC-PU-NK cell line [3]; increasing concentrations up to approximately IC50): did not show a significant pro-apoptotic effect; percentage of early and late apoptotic cells (RDSVS-TCC1 cell line [4]; 5 μM): 17.2 ± 6.5%; percentage of cells with active caspase 3/7 (K9TCC-PU-NK cell line [5]; [9]): 13.3 ± 3.3% and 13.2%; percentage of cells with active caspase 3/7 (RDSVS-TCC1 cell line [6]; [9]): 16.2 ± 7.4% and 16.2%; Bcl-xl expression ([7]; analyzed cell lines, increasing concentrations): No clearly visible changes |
